Test results published in US9890138B2, “Diaminopyrimidine derivatives and processes for the preparation thereof” (YUHAN CORPORATION, priority 2011, dated 2018).
Counter-ions that a name gives are not always drawn.

These compounds were tested against T1, human 5-HT4(a) (Homo sapiens, UniProt Q13639) (assay: Evaluation of agonistic activity in CHO-K1 cells expressing human 5-HT4(a) (GeneBlAzer HTR4-CRE-bla CHO-K1, beta-lactamase reporter)). Conditions: CHO-K1 cells stably expressing human 5-HT4(a).
T1 construct: host or cells: GeneBlAzer HTR4-CRE-bla CHO-K1 cells
T1 sequence (Q13639 1-387 isoform Q13639-2): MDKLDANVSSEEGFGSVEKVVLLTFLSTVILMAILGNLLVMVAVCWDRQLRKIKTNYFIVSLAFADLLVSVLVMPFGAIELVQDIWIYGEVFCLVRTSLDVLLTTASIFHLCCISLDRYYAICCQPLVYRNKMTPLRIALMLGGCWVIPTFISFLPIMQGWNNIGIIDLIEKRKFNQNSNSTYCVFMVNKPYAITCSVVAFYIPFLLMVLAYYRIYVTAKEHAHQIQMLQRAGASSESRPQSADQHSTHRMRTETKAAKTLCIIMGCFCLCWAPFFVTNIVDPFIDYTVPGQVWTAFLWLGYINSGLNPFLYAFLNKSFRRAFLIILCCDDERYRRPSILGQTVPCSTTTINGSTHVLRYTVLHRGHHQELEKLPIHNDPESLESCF
Format: cell-based
Procedure: Test Example 1: Evaluation of Agonistic Activity in CHO-K1 Cells Expressing Human 5-HT4(a)
As CHO-K1 cells stably expressing human 5-HT4(a), we used the GeneBlAzer HTR4-CRE-bla CHO-K1 cells (Invitrogen Corp.). The cells were cultured, under the condition of 37[…] and 5% CO2, in a DMEM supplemented with 10% fetal bovine serum (FBS), 25 mM HEPES (pH7.4), 600 μg/ml hygromycin B, 0.1 mM non-essential amino acids, 100 unit/ml penicillin and 100 μg/ml streptomycin. Subcultures were performed three times per one week, each being at less than 80% confluence. At the previous day before treating test compounds, the cells were collected using 0.5% trypsin/EDTA and then diluted with a DMEM supplemented with 1% FBS, 25 mM HEPES, and 0.1 mM non-essential amino acids into 3.125×10^5 cells/ml. 32 μl of the diluted cells were added into 384-well plate (10^4 cells per well) and then incubated overnight. After the overnight culture, 8 μl of the medium having 1% of DMSO was added into the cell-free control well and the non-stimulating control well, respectively. 8 μl of the respective test compound dilutions (which had been prepared by diluting by 100-times with the medium as mentioned in the above) having 1% of DMSO were added to the respective remaining wells. After being cultured in the incubator for 5 hours, the wells of the 384-plate were treated with the substrate solution (8 μl per well) prepared according to the vendor's instruction (i.e., Invitrogen's instruction), and then incubated in the dark room for additional two hours. Agonistic activities on 5-HT4 receptor were evaluated, on the basis of fluorescence values of the cleavage-products by beta-lactamase. After exciting to 410 nm of wavelength using a fluorescence detector (Genios Pro), we measured the fluorescence values at two emission wavelengths (first wavelength: 465 nm, second wavelength: 535 nm). Data were analyzed on the basis of the ratio of fluorescence intensities of each well at the respective wavelengths. Each EC50 value was calculated by non-linear regression analysis using the “GraphPad Prism” program, based on the activities according to 8-different concentrations of the test compounds.

Point of comparison: `CCCc1cc(N2CCC[C@H]2COC)nc(Nc2ccc(N)c(C(F)(F)F)c2)n1` [Example 42, (S)-N^1-{4-[2-(methoxymethyl)pyrrolidin-1-yl]-6-propylpyrimidin-2-yl}-3-(trifluoromethyl)benzene-1,4-diamine], EC50 0.033 nM. Against it:
- CCCc1cc(N2CCC(NCC)C2)nc(Nc2ccc(F)cc2)n1 (centres unmarked) [Example 13, 4-[3-(ethylamino)pyrrolidin-1-yl]-N-(4-fluorophenyl)-6-propylpyrimidin-2-amine] — 3.6-fold higher, 0.12 nM
- CCCc1cc(N2CC[C@H](NC(C)=O)C2)nc(Nc2ccc(F)cc2)n1 [Example 17, (S)-N-{1-[2-(4-fluorophenylamino)-6-propylpyrimidin-4-yl]pyrrolidin-3-yl}acetamide] — 11-fold higher, 0.35 nM
- CCCc1cc(N2CC[C@H](NCC)C2)nc(Nc2ccc(F)cc2)n1 [Example 18, (S)-4-[3-(ethylamino)pyrrolidin-1-yl]-N-(4-fluorophenyl)-6-propylpyrimidin-2-amine] — 4.2-fold higher, 0.14 nM
- CCCc1cc(N2CC[C@H](NC)C2)nc(Nc2ccc(F)cc2)n1 [Example 22, (S)-N-(4-fluorophenyl)-4-[3-(methylamino)pyrrolidin-1-yl]-6-propylpyrimidin-2-amine] — 10-fold higher, 0.33 nM
- CCCc1cc(N2CCC[C@H]2COC)nc(Nc2ccc(F)c([N+](=O)[O-])c2)n1 [Example 31, (S)-N-(4-fluoro-3-nitrophenyl)-4-[2-(methoxymethyl)pyrrolidin-1-yl]-6-propylpyrimidin-2-amine] — 3.9-fold higher, 0.13 nM
- CCCc1cc(N2CCC[C@H]2COC)nc(Nc2cccc([N+](=O)[O-])c2)n1 [Example 32, (S)-4-[2-(methoxymethyl)pyrrolidin-1-yl]-N-(3-nitrophenyl)-6-propylpyrimidin-2-amine] — 7-fold higher, 0.23 nM
- CCCc1cc(N2CCC[C@H]2COC)nc(Nc2ccc(Cl)c([N+](=O)[O-])c2)n1 [Example 33, (S)-N-(4-chloro-3-nitrophenyl)-4-[2-(methoxymethyl)pyrrolidin-1-yl]-6-propyl pyrimidin-2-amine] — 1.8-fold higher, 0.059 nM
- CCCc1cc(N2CCC[C@H]2COC)nc(Nc2cccc(C#N)c2)n1 [Example 34, (S)-3-{4-[2-(methoxymethyl)pyrrolidin-1-yl]-6-propylpyrimidin-2-ylamino}benzonitrile] — 4.8-fold higher, 0.16 nM
- CCCc1cc(N2CCC[C@H]2COC)nc(Nc2cccc(C(F)(F)F)c2)n1 [Example 36, (S)-4-[2-(methoxymethyl)pyrrolidin-1-yl]-6-propyl-N-[3-(trifluoromethyl)phenyl]pyrimidin-2-amine] — 7.4-fold higher, 0.243 nM
- CCCc1cc(N2CCC[C@H]2COC)nc(Nc2ccc(C)c([N+](=O)[O-])c2)n1 [Example 40, (S)-4-[2-(methoxymethyl)pyrrolidin-1-yl]-N-(4-methyl-3-nitrophenyl)-6-propylpyrimidin-2-amine] — within 1.5-fold, 0.03 nM
- CCCc1cc(N2CCC[C@H]2COC)nc(Nc2ccc(F)c(C(F)(F)F)c2)n1 [Example 41, (S)-N-[4-fluoro-3-(trifluoromethyl)phenyl]-4-[2-(methoxymethyl)pyrrolidin-1-yl]-6-propylpyrimidin-2-amine] — 4.5-fold higher, 0.15 nM
- CCCc1cc(N2CCC[C@H]2COC)nc(Nc2ccc(F)c(C#N)c2)n1 [Example 43, (S)-2-fluoro-5-{4-[2-(methoxymethyl)pyrrolidin-1-yl]-6-propylpyrimidin-2-ylamino}benzonitrile] — 5.4-fold higher, 0.178 nM
- CCCc1cc(N2CCC[C@H]2COC)nc(Nc2ccc(C)c(C#N)c2)n1 [Example 44, (S)-5-{4-[2-(methoxymethyl)pyrrolidin-1-yl]-6-propylpyrimidin-2-ylamino}-2-methylbenzonitrile] — 1.5-fold lower, 0.022 nM
- CCCc1cc(N2CCC[C@H]2COC)nc(Nc2ccc(N)c(C#N)c2)n1 [Example 45, (S)-2-amino-5-{4-[2-(methoxymethyl)pyrrolidin-1-yl]-6-propylpyrimidin-2-ylamino}benzonitrile] — within 1.5-fold, 0.036 nM
- CCCc1cc(N2CCC[C@H]2COC)nc(Nc2ccc(N)c([N+](=O)[O-])c2)n1 [Example 46, (S)-N^1-{4-[2-(methoxymethyl)pyrrolidin-1-yl]-6-propylpyrimidin-2-yl}-3-nitrobenzene-1,4-diamine] — 3.4-fold lower, 0.0097 nM
- CCCc1cc(N2CC[C@H](N)C2)nc(Nc2ccc(F)cc2)n1 [Example 47, (S)-4-(3-aminopyrrolidin-1-yl)-N-(4-fluorophenyl)-6-propylpyrimidin-2-amine dihydrochloride] — 12-fold higher, 0.38 nM
- CCCc1cc(N2CC[C@H](NC)C2)nc(Nc2cccc(C#N)c2)n1 [Example 50, (S)-3-{4-[3-(methylamino)pyrrolidin-1-yl]-6-propylpyrimidin-2-ylamino}benzonitrile] — 2.8-fold lower, 0.012 nM
- CCCc1cc(N2CC[C@H](O)C2)nc(Nc2cccc(C#N)c2)n1 [Example 52, (S)-3-[4-(3-hydroxypyrrolidin-1-yl)-6-propylpyrimidin-2-ylamino]benzonitrile] — 10-fold higher, 0.33 nM
- CCCc1cc(N2CCC[C@H]2C)nc(Nc2cccc(C#N)c2)n1 [Example 53, (R)-3-[4-(2-methylpyrrolidin-1-yl)-6-propylpyrimidin-2-ylamino]benzonitrile] — 3-fold higher, 0.098 nM
- CCCc1cc(N2CC[C@H](NC(C)=O)C2)nc(Nc2cccc(C#N)c2)n1 [Example 54, (S)-N-{1-[2-(3-cyanophenylamino)-6-propylpyrimidin-4-yl]pyrrolidin-3-yl}acetamide] — within 1.5-fold, 0.032 nM
- CCCc1cc(N2CC[C@H](NCC)C2)nc(Nc2cccc(C#N)c2)n1 [Example 55, (S)-3-{4-[3-(ethylamino)pyrrolidin-1-yl]-6-propylpyrimidin-2-ylamino}benzonitrile] — 2.1-fold lower, 0.016 nM
- CCCc1cc(N2CC[C@H](CNC(=O)OC(C)(C)C)C2)nc(Nc2cccc(C#N)c2)n1 [Example 56, (R)-tert-butyl{1-[2-(3-cyanophenylamino)-6-propylpyrimidin-4-yl]pyrrolidin-3-yl}methylcarbamate] — 9.5-fold higher, 0.312 nM
- CCCc1cc(N2CC[C@@H](O)C2)nc(Nc2cccc(C#N)c2)n1 [Example 57, (R)-3-[4-(3-hydroxypyrrolidin-1-yl)-6-propylpyrimidin-2-ylamino]benzonitrile] — 12-fold higher, 0.389 nM
- CCCc1cc(N2CCC(NC)C2)nc(Nc2cccc(C#N)c2)n1 (centres unmarked) [Example 59, 3-{4-[3-(methylamino)pyrrolidin-1-yl]-6-propylpyrimidin-2-ylamino}benzonitrile dihydrochloride] — within 1.5-fold, 0.028 nM
- CCCc1cc(N2CC[C@H](N)C2)nc(Nc2cccc(C#N)c2)n1 [Example 60, (S)-3-[4-(3-aminopyrrolidin-1-yl)-6-propylpyrimidin-2-ylamino]benzonitrile dihydrochloride] — within 1.5-fold, 0.047 nM
- CCCC(=O)N[C@H]1CCN(c2cc(CCC)nc(Nc3cccc(C#N)c3)n2)C1 [Example 61, (S)-N-{1-[2-(3-cyanophenylamino)-6-propylpyrimidin-4-yl]pyrrolidin-3-yl}butyramide] — 4.5-fold higher, 0.15 nM
- CCCc1cc(N2CC[C@H](NC(=O)C3CCCC3)C2)nc(Nc2cccc(C#N)c2)n1 [Example 62, (S)-N-{1-[2-(3-cyanophenylamino)-6-propylpyrimidin-4-yl]pyrrolidin-3-yl}cyclopentanecarboxamide] — 11-fold higher, 0.36 nM
- CCCc1cc(N2CC[C@H](NC(=O)CCN3CCCCC3)C2)nc(Nc2cccc(C#N)c2)n1 [Example 63, (S)-N-{1-[2-(3-cyanophenylamino)-6-propylpyrimidin-4-yl]pyrrolidin-3-yl}-3-(piperidin-1-yl)propanamide] — 3.9-fold higher, 0.13 nM
